Source: patent publication US6930185B2, “Melanin-concentrating hormone antagonist” (Takeda Chemical Industries, Ltd., priority 2000, dated 2005)

Tested on: not given
Experiment: not given
Settings: not given

Compound | melting point [°C]
CN(C)Cc1ccc2cc(NC(=O)c3ccc(-c4ccc(Cl)cc4)cc3)ccc2c1 [Example 1, 4′-Chloro-N-[6-[(N,N-dimethylamino)methyl]-2-naphthyl][1,1′-biphenyl]-4-carboxamide] | 230 to 231
CC1(C)CCCC(C)(C)N1Cc1ccc2cc(NC(=O)c3ccc(-c4ccc(Cl)cc4)cc3)ccc2c1 [Example 123, 4′-Chloro-N-[6-[(2,2,6,6-tetramethyl-1-piperidinyl)methyl]-2-naphthyl][1,1′-biphenyl]-4-carboxamide] | 244 to 246
CC(C)N(Cc1ccc2cc(NC(=O)c3ccc(-c4ccc(Cl)cc4)cc3)ccc2c1)C(C)C [Example 124, 4′-Chloro-N-[6-[(diisopropylamino)methyl]-2-naphthyl][1,1′-biphenyl]-4-carboxamide] | 246 to 250
CC(C)N(Cc1ccc2cc(NC(=O)c3ccc(-c4ccc(F)cc4)cc3)ccc2n1)C(C)C [Example 135, N-[2-[(Diisopropylamino)methyl]-6-quinolinyl]-4′-fluoro[1-1′-biphenyl]-4-carboxamide] | 207 to 209
Cc1ccc(-c2ccc(C(=O)Nc3ccc4nc(CN(C(C)C)C(C)C)ccc4c3)cn2)cc1 [Example 137, N-[2-[(Diisopropylamino)methyl]-6-quinolinyl]-6-(4-methylphenyl)nicotinamide] | 211 to 213
CC(C)N(Cc1ccc2cc(NC(=O)N3CCC(c4ccc(Cl)cc4)CC3)ccc2n1)C(C)C [Example 140, 4-(4-Chlorophenyl)-N-[2-[(diisopropylamino)methyl]-6-quinolinyl]-1-piperidinecarboxamide] | 201 to 203

Now from value to molecule:

melting point [°C] | Compound
208 to 209 | CC(C)N(Cc1ccc2cc(NC(=O)c3ccc(-c4ccccc4)cc3)ccc2n1)C(C)C [Example 133, N-[2-[(Diisopropylamino)methyl]-6-quinolinyl][1-1′-biphenyl]-4-carboxamide]
223 to 225 | COc1ccc(-c2ccc(C(=O)Nc3ccc4nc(CN(C(C)C)C(C)C)ccc4c3)cc2)cc1 [Example 134, N-[2-[(Diisopropylamino)methyl]-6-quinolinyl]-4′-methoxy[1-1′-biphenyl]-4-carboxamide]
225 to 227 | Cc1ccc(-c2ccc(C(=O)Nc3ccc4nc(CN(C(C)C)C(C)C)ccc4c3)cc2)cc1 [Example 136, N-[2-[(Diisopropylamino)methyl]-6-quinolinyl]-4′-methyl [1-1′-biphenyl]-4-carboxamide]
201 to 203 | CC(C)N(Cc1ccc2cc(NC(=O)c3ccc(-c4ccc(Cl)cc4)nc3)ccc2n1)C(C)C [Example 138, 6-(4-Chlorophenyl)-N-[2-[(diisopropylamino)methyl]-6-quinolinyl]nicotinamide]
184 to 186 | Cc1ccc(C2CCN(C(=O)Nc3ccc4nc(CN(C(C)C)C(C)C)ccc4c3)CC2)cc1 [Example 139, N-[2-[(Diisopropylamino)methyl]-6-quinolinyl]-4-(4-methylphenyl)-1-piperidinecarboxamide]

Biological target: SLC-1 (UniProt Q99705)
Experiment: Determination of antagonist activity using GTPγS binding assay
Type: biochemical, human/rat
Settings: inhibition of MCH-stimulated [35S]-Guanosine 5′-(γ-thio) triphosphate binding, SLC-1 expressing CHO cell membrane fractions
Method: Determination of Antagonist Activity Using GTPYS Binding Assay of Test Compound
Membrane fraction was prepared by the following method, using the human SLC-1 expressing CHO cell clone 57 obtained in Reference Example 1-10, and the rat SLC-1 expressing CHO cell clone 44 obtained in Reference Example 1-4.
The human and rat SLC-1 expressing CHO cells (1×10^8) were scraped in buffer saline phosphate (pH 7.4) to which 5 mM EDTA (ethylenediaminetetraacetic acid) had been added, and centrifuged. 10 ml of homogenized buffer (10 mM NaHCO3, 5 mM EDTA, pH 7.5) was added to the cell pellets, and they were homogenized using a Polytron homogenizer. […]
After this reaction mixture was allowed to react for 1 hour under stirring, it was filtered under vacuum using a glass filter (GF-C), then the filter was washed 3 times with 300 μl of washing solution (50 mM Tris-HCl buffer solution pH 7.5). […] of liquid scintillator was added to the glass filter, and residual radioactivity was determined using a liquid scintillation counter.
The IC50 value of the compound was calculated from the binding inhibition rate (%), based on the definition that the binding inhibition rate (%)=(radioactivity when compound and MCH were added−radioactivity when DMSO solution was added)/(radioactivity when MCH was added−radioactivity when DMSO solution was added)×100.

IC50 [nM] | Compound
5 | CN(C)Cc1ccc2cc(NC(=O)c3ccc(-c4ccc(Cl)cc4)cc3)ccc2c1 [Example 1, 4′-Chloro-N-[6-[(N,N-dimethylamino)methyl]-2-naphthyl][1,1′-biphenyl]-4-carboxamide]
